Tests used:
[1] = tested on: KRAS^G12C with secondary switch II pocket mutations; test: Cellular nano-BRET KRAS:CRAF disruption, KRAS^G12C with secondary SWII mutations; format: cell-based, human; settings: KRAS^G12C with secondary mutation, 4 h
KRAS^G12S = KRAS^G12S (Homo sapiens, UniProt P01116+P62937, G12S); test: Biochemical RAS–RAF (BRAF RBD) disruption, TR-FRET; design: His6-TEV (N); made in house; host or cells: E. coli BL21(DE3)
From the text: (§1) Time-resolved fluorescence resonance energy transfer (TR-FRET) was used as previously described to assess disruption of the interactions between wild-type RAS or the mutant oncogenic RAS proteins and the RAS-binding domain of BRAF, and to assess the induction of interactions between the RAS proteins and CYPA[12].

HRAS WT = HRAS WT (Homo sapiens, UniProt P01112+P62937); test: Biochemical RAS–RAF (BRAF RBD) disruption, TR-FRET; design: His6-TEV (N); made in house; host or cells: E. coli BL21(DE3)
From the text: as §1

[2] = tested on: NCI-H441, HPAC and SW620 CDX models; test: CDX models, RMC-7977 versus SHP2 and MEK inhibitors; settings: three KRAS^G12X models; RMC-7977 10 mg kg^−1 once daily, RMC-4550 20 mg kg^−1 every 2 days, cobimetinib 2.5 mg kg^−1 once daily, alone or in combination
Protocol: Data are mean ± s.e.m. of 3–18 mice per group.
Female BALB/c nude mice, NOD SCID and NSG mice 6-8 weeks old from Beijing Vital River/VR Laboratory Animal Co., LTD, Beijing AniKeeper Biotech Co., Ltd., Shanghai Sino-British SIPPR/BK Laboratory Animal Co., LTD and The Jackson Laboratory were used. Animals were housed in polycarbonate cages, in an environmentally monitored, well ventilated room maintained at a constant temperature of 20-26°C and relative humidity of 40-80%. Fluorescent lighting provided illumination approximately 12 hours per day. Each mouse was inoculated at the right flank with tumor cells (2x10^6-1x10^7) in 100-200 µL of media/PBS supplemented with Matrigel (1:1). Treatments were started when the average tumor size reached 100-250 mm^3. […] Mice on studies were weighed and tumor measurements collected twice weekly. Human primary cancer xenograft models were generated using fresh cancer tumor fragments obtained from hospitals with informed consent from the patients in accordance with protocols approved by the Hospital Institutional Ethical Committee (IEC). Tumor fragments were serial-passaged in BABL/c nude mice and then cryopreserved. Cryopreserved tumors were recovered by implantation in BALB/c nude mice and further serial passaged and frozen for study implantation use. Recovered tumor fragments of about 15-30 mm3 in size from each model were implanted into right flanks of Balb/c nude mice. Treatment started when average tumor volume reached 100-250mm^3. For efficacy study, Animals were assigned to study groups using stratified randomization based upon their tumor volumes (n=3-10/group). […] Animals were treated for 28 days (or up to 110 for selected models) or an earlier time if tumor burden reached humane endpoint. Mean ± s.e.m was plotted in the waterfall plots. The dashed line on waterfall plot indicates a 10% reduction in tumor volume from baseline. […] Body weights were collected twice a week during the study. For single-dose pharmacokinetic/pharmacodynamics (PK/PD) study, mice were randomized into treatment groups when mean tumor volume reached 400-600 mm^3.

How did the “effect of switch II pocket binding mutations (R68, Y96, H95) on potency” value [1] turn out when CCn1c(-c2cc(N3CCN(C4CC4)CC3)cnc2[C@H](C)OC)c2c3cc(ccc31)-c1csc(n1)C[C@H](NC(=O)[C@H]1[C@@H]3COC[C@@H]31)C(=O)N1CCC[C@H](N1)C(=O)OCC(C)(C)C2 [RMC-7977] was run?
The value was “little or no effect”.

What about the EC50 (KRAS^G12S) of the same compound?
Its EC50 is 107 nM.

What about the EC50 (HRAS WT) of the same compound?
Its EC50 is 59.9 nM.

And the anti-tumour activity [2]?
The anti-tumour activity was “deep regressions in all three models”.
